Measured values reported in patent US10532082B2, “SOCS1-derived peptide for use in chronic complications of diabetes” (Fundació Hospital Universitari Vall d'Hebron-Institut de …, priority 2014, dated 2020).
Where no end group is shown, it is not given here. [ ]: non-standard residue; d: D form. lysine‑palmitate = lysine-palmitate bound at the N-terminal end; pY = N[C@@H](Cc1ccc(OP(=O)(O)O)cc1)C(=O)O

Key:
RAW264.7 macrophages = experiment: Cytokine-induced CCL2 production in macrophages (ELISA); assay type: cell-based, murine; settings: pre-incubation with peptide, IFNγ and IL-6
Protocol: (§1) RAW264.7 macrophages and vascular smooth muscle cells (VSMC) cultured in a medium with 10% fetal bovine serum were used. The cells were synchronized (24 hours without serum), pre-incubated for 90 minutes with different peptide concentrations (miS1 or the control thereof, 50-150 μg/mL) and stimulated with cytokines (IFNγ […]). STAT activation was analyzed by means of Western blot for phosphorylated STAT1/STAT3 isoforms. JAK/STAT pathway-dependent chemokine (CCL2) expression was determined by means of ELISA. Cell viability was analyzed by MTT colorimetric assay and macrophage migration was analyzed by chemotaxis assay.

STAT1 [1] = experiment: STAT1 activation in cytokine-stimulated VSMC; assay type: cell-based, mouse; settings: IFNγ and IL-6 stimulation, immunofluorescence images
STAT1 [2] = experiment: Renal phosphorylated STAT1 immunodetection in diabetic mice; assay type: in vivo; settings: STZ apoE mice, i.p. 8 weeks; kidney sections, vs vehicle
Protocol: (§2) Apolipoprotein E (apoE)-deficient male mice of 8 weeks of age were made diabetic through streptozotocin injection (125 mg/kg weight in 10 mM citrate, pH 4.5, two consecutive days). After 2 weeks, animals with glycemia greater than 350 mg/dL were randomly distributed in two groups (n=9 animals per group): treated animals (miS1 peptide: 65 μg/day, 200 μL, intraperitoneally, every 2 days for 8 weeks) and controls (vehicle). The weight and glycemia (colorimetric assay) were controlled throughout the study period.

[3] = system: vascular smooth muscle cells (VSMC); experiment: Cytokine-induced CCL2 production in VSMC (ELISA); assay type: cell-based, mouse; settings: pre-incubation with peptide, IFNγ and IL-6
Protocol: as §1

STAT3 [4] = experiment: Renal phosphorylated STAT3 immunodetection in diabetic mice; assay type: in vivo; settings: STZ apoE mice, i.p. 8 weeks; kidney sections, vs vehicle
Protocol: as §2

diabetic mice (db/db) [5] = experiment: Glial activation by GFAP immunofluorescence in retina, topical eye drops; assay type: in vivo
Protocol: (§3) 8-week old diabetic mice (db/db) received the miS1 peptide in the form of eye drops (5 μL drops in each eye; 10 mg/mL; twice a day for 15 days; n=7 mice). Diabetic mice treated with the non-functional peptide Mut (n=7), treated with vehicle and non-diabetic mice (db/+) were used as controls. The eye drops were directly administered on the upper surface of the cornea of each eye using a micropipette. The weight and glycemia (colorimetric assay) were controlled throughout the study period. On day 15, the drop with the miS1 peptide or vehicle was administered about two hours before autopsy. […]
Glial activation was evaluated by means of GFAP (Glial fibrillar acidic protein) immunofluorescence following the methodology described in other studies (Bogdanov et al. PLoS One. 2014; 9:e97302). […] The images of diabetic and control samples were taken with identical parameters and the topographic distribution of the GFAP labelling was analyzed in a scale of 0 to 5 (Anderson et al. Clin Ophthalmol 2008; 2(4):801-16). […] Apoptosis was determined by means of TUNEL (Terminal Transferase dUTP Nick-EndLabeling; fluorescence kit) immunohistochemistry using the previously described method (Bogdanov et al. PLoS One. 2014; 9:e97302) and subsequent quantification under a fluorescence microscope. […]

STAT3 [6] = experiment: STAT3 activation in cytokine-stimulated macrophages (Western blot); assay type: cell-based, murine; settings: pre-incubation 50-150 ug/mL (Mut 150 ug/mL), IFNγ and IL-6 stimulation
Protocol: as §1

diabetic mice (db/db) [7] = experiment: Electroretinogram (ERG) recordings, topical eye drops; assay type: in vivo; settings: eye drops 15 days
Protocol: as §3
Electroretinogram (ERG) recordings were performed in darkness-adapted anesthetized mice (12 hours overnight). Focal electroretinogram (Ferg) recordings were measured using a Micron III Focal ERG system (Phoenix Research Labs, Pleasanton, Calif.). […] The ERG responses of both eyes were recorded in response to 20 ms white light stimuli. […] The ERG signals were amplified, the filtered band was between 0.5 and 1000 Hz, and was analyzed with LabScribe-2 software (BioSeb, Vitrolles, France) in order to calculate the a-wave and b-wave amplitude and implicit time, as recommended by the International Society of Clinical Electrophysiology of Vision (ISCEV) (Marmor et al Doc Ophtalmol 108: 107 a 144). […]

Substance: miS1: SEQ ID NO 1 DTHFRTFRSHSDYRRI, kinase inhibitory region of murine SOCS1, bound to lysine-palmitate at the N-terminal end, tyrosine phosphorylated ({lysine‑palmitate}-DTHFRTFRSHSD[pY]RRI)
- reduction of cytokine-induced CCL2 production (RAW264.7 macrophages): 30-40%
- STAT1 activation (STAT1 [1]): prevented
- renal STAT1 activation (STAT1 [2]): reduction
- reduction of cytokine-induced CCL2 production [3]: 30-40%
- renal STAT3 activation (STAT3 [4]): reduction
- GFAP score (diabetic mice (db/db) [5]; eye drops 50 μg in 5 μL/eye twice a day, 15 days, scale 0 to 5): 3
- reduction of GFAP glial protein staining (diabetic mice (db/db) [5]; eye drops 15 days, compared with groups that received Mut peptide or vehicle): about 80%
- STAT3 activation (phosphorylation) (STAT3 [6]): reduced STAT1 and STAT3 activation in a dose-dependent manner
- ERG a-wave and b-wave implicit time (diabetic mice (db/db) [7]; diabetes-induced increase): declines
- ERG a-wave and b-wave amplitude (diabetic mice (db/db) [7]; diabetes-induced reduction): declines the reduction
